“Also recorded” adds a separate entry of the source.
Assays:
[1] = target: firefly luciferase (Photinus pyralis, UniProt P08659); experiment: Native firefly luciferase activity; type: biochemical; conditions: 100 µM compound
[2] = system: E. coli MC4100; experiment: Bacterial growth and viability, E. coli MC4100; type: cell-based, Escherichia coli
Description: E. coli MC4100, MC4100ΔclpB, dnaK103, and dnaK756 strains were used to determine an influence of DBeQ on bacterial growth and viability. Bacteria were maintained in the LB media, and in the case of the MC4100ΔclpB strain, LB was supplemented with 30 μg/ml kanamycin. All experiments were initiated by preparing overnight cultures inoculated from single colonies and grown at 37 °C. The dnaK103 and dnaK756 overnight cultures were grown at 30 °C. On the following day, the cultures were diluted 100-fold in 10 ml of LB without antibiotics and incubated at 37 °C. The culture optical density was monitored at 600 nm. When absorbance at 600 nm reached 0.4, the culture was divided into 1-ml aliquots and supplemented with 10 μl of DMSO or different concentrations of DBeQ in DMSO. The samples were immediately transferred into an incubator/shaker at temperature 37, 45, or 50 °C. Bacteria were cultured for up to 4 h with shaking (200 RPM). At specific time points, 100 μl of each culture was withdrawn and serially diluted in sterile 0.9% NaCl up to 10^6-fold dilution. To estimate the number of viable cells, 5 μl or 10 μl of the diluted cultures was spread on the LB-agar plate without an antibiotic. After a complete adsorption of liquid on the LB-agar surface, the plates were incubated overnight at 37 °C. On the following day, the bacterial colonies were counted and the colony-forming units/ml were calculated.

[3] = system: p97; design: method as in PMID 25685910; conditions: cited from earlier work
[4] = target: T1, ClpB–DnaK bichaperone system (DnaK–DnaJ–GrpE + ClpB) (Escherichia coli, UniProt P0A6Y8+P63284); experiment: Aggregate reactivation assay with KJE + ClpB; type: biochemical
T1 construct: full-length E. coli DnaK (residues 1–638); made in house; host or cells: E. coli BL21(DE3) for DnaK
Description: G6PDH was chemically denatured by mixing 5 μl of the G6PDH stock solution (441 μM) with 5 μl of buffer A (10 M urea, 16% glycerol, 40-mM DTT) preheated at 47 °C. The samples of G6PDH in buffer A were incubated for 5 min at 47 °C. Subsequently, 5 μl of denatured G6PDH was mixed with 95 μl of buffer B (50-mM Tris-HCl, pH 7.4, 20-mM Mg(OAc)2, 30-mM KCl, 1-mM EDTA, 1-mM β-mercaptoethanol) preheated at 47 °C to initiate protein refolding, which, under these conditions, is inefficient and leads to misfolding and aggregation of G6PDH ([69]). G6PDH aggregate production was arrested after 1 min (for refolding by KJE) or 15 min (for refolding by KJE with ClpB) by transferring into ice for 2 min. To observe the aggregate reactivation, aggregated G6PDH was diluted 10-fold in buffer C (50-mM Tris-HCl, pH 7.4, 20-mM MgCl2, 1-mM EDTA, 0.5-mM TCEP) containing the chaperones KJE (5.5-μM DnaK, 1.1-μM DnaJ, 1.1-μM GrpE) or KJE-ClpB (5.5-μM DnaK, 1.1-μM DnaJ, 1.1-μM GrpE, 1.65-μM ClpB (hexamer)). G6PDH in buffer C without chaperones was used as a control for a spontaneous aggregate reactivation. The chaperone-G6PDH samples (18 μl) were supplemented with 1 μl of DBeQ in DMSO or pure DMSO as a control. The samples were incubated for 2 min at 30 °C. The aggregate reactivation was initiated by adding 1 μl of 100-mM ATP, followed by incubation for 60 min at 30 °C. […] The plate was inserted into Synergy H1 plate reader (BioTek, Winooski, VT) with the chamber temperature at 30 °C, and the sample absorbance at 340 nm was measured after 10 min. The amount of NADPH produced was calculated based on the NADPH molar extinction coefficient, Ɛ340 = 6220 [M^−1 ⋅ cm^−1].
Firefly luciferase (220 μM) was diluted 300-fold in PBS buffer with 1 mg/ml bovine serum albumin and then incubated for 12 min at 45 °C. […] Luminescence was measured using Synergy H1 plate reader (BioTek, Winooski, VT).

T1 sequence (P63284 whole entry, the tested form may be a part): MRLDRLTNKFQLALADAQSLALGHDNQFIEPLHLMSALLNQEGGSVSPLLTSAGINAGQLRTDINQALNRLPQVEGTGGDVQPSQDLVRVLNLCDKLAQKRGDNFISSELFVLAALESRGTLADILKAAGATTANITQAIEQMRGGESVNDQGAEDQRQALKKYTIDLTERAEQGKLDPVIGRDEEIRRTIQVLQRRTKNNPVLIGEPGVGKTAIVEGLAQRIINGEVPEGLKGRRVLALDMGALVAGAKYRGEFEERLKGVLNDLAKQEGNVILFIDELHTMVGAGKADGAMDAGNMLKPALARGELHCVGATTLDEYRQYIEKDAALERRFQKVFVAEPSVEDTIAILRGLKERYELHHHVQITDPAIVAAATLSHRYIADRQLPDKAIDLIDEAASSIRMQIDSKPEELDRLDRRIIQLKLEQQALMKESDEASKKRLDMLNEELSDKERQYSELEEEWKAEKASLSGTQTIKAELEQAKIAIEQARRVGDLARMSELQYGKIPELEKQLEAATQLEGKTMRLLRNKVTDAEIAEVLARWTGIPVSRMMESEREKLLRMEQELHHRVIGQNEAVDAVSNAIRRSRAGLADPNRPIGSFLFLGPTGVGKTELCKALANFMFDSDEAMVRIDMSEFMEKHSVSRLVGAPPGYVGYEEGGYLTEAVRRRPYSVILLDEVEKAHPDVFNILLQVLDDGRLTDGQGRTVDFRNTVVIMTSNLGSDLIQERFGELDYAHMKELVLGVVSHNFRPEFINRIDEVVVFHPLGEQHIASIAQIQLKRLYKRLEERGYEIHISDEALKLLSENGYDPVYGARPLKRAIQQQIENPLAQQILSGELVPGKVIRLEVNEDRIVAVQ
T1 sequence (P0A6Y8 whole entry, the tested form may be a part): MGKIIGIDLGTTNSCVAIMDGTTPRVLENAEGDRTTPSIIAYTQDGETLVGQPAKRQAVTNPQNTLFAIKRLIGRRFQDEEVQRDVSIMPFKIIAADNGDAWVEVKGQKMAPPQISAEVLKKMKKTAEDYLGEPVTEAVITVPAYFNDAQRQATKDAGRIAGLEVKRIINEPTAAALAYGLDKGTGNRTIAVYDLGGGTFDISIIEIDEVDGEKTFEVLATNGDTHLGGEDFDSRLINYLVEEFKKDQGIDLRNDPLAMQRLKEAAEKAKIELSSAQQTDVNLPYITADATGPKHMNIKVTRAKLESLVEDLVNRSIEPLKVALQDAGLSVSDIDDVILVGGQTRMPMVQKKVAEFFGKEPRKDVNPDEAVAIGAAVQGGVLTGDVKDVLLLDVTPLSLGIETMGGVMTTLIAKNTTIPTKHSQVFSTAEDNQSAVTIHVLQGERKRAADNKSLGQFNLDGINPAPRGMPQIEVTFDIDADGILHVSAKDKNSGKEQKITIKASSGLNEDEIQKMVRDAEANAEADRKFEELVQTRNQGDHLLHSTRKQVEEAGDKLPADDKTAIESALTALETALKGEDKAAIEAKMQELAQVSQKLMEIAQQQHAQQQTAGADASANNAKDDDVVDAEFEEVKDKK
Chain of firefly luciferase (P08659 whole entry): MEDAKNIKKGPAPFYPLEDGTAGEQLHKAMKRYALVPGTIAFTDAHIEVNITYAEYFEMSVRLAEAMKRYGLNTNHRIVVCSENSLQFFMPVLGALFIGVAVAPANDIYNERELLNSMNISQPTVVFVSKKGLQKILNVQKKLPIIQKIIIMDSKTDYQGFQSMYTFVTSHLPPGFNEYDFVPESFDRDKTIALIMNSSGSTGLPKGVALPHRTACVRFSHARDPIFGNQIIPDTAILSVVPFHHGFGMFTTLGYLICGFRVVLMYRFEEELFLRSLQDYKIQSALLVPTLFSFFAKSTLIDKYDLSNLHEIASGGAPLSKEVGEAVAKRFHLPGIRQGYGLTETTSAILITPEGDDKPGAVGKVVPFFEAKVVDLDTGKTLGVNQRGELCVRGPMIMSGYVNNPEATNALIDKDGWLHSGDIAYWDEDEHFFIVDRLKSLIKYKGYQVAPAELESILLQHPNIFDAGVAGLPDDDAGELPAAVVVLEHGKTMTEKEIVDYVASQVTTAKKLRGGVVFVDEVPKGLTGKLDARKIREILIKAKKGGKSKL

SMILES: c1ccc(CNc2nc(NCc3ccccc3)c3ccccc3n2)cc1 [DBeQ, N^2,N^4-dibenzylquinazoline-2,4-diamine]
- effect on native luciferase activity [1]: not affected
- effect on growth of E. coli ([2]; MC4100, 37 °C): suppressed the growth; also recorded: inhibited the growth
- effect on viability of E. coli under heat shock ([2]; MC4100, 45 °C): exacerbated by heat shock; also recorded: strongly inhibited
- effect on viability of E. coli at severe heat shock ([2]; MC4100, 50 °C): lost viability at the lowest DBeQ concentrations tested
- IC50 [3]: ~3 µM
- IC50 [4]: ~5 µM
- inhibition of ClpB-dependent reactivation of aggregated luciferase ([4]; KJE + ClpB, 20 min, 25 °C): inhibited
- inhibition of ClpB-dependent reactivation of aggregated G6PDH ([4]; KJE + ClpB, 60 min, 30 °C, compared with KJE alone): inhibited by DBeQ with a several-fold lower IC50 than ClpB-independent reactivation by KJE alone

From publication PMC7948422, “Repurposing p97 inhibitors for chemical modulation of the bacterial ClpB–DnaK bichaperone system” (The Journal of Biological Chemistry, 2020)
